Experimental findings from PubChem BioAssay AID330 (DTP/NCI, 2004) are described below.

Where “and” joins values, the source holds several entries; their conditions need not be identical. Identical values can stand only once. Inconclusive results and toxic doses are left out.

The assay has as its system P388 leukemia ip, CD2F1 mice, survival T/C. The assay can be described thus: NCI In Vivo Anticancer Drug Screen. Data for tumor model P388 Leukemia (intraperitoneal) in CD2F1 (CDF1) mice. Particulars: endpoint: median survival time, higher = longer survival. The essentials:
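Mice carrying the transplanted tumor received test compound or vehicle. Survival was recorded in each group, and the value is the treated-group measurement divided by that of the vehicle-treated control group.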

The mark [1] stands for this setting: dose: 50.0 mg/kg/injection, schedule: Q01DX005 (ip), vehicle: Klucel (hydroxypropylcellulose) (HPC).
Setting [2] is: dose: 100.0 mg/kg/injection, schedule: Q01DX005 (ip), vehicle: Klucel (hydroxypropylcellulose) (HPC).
Where [3] appears, read: dose: 50.0 mg/kg/injection, schedule: Q01DX009 (ip), vehicle: saline with Tween-80.
The mark [4] stands for this setting: dose: 100.0 mg/kg/injection, schedule: Q01DX009 (ip), vehicle: saline with Tween-80.
Setting [5] is: dose: 25.0 mg/kg/injection, schedule: Q01DX009 (ip), vehicle: saline with Tween-80.
Setting [6] is: dose: 200.0 mg/kg/injection, schedule: Q01DX009 (ip), vehicle: saline with Tween-80.
Setting [7] is: dose: 400.0 mg/kg/injection, schedule: Q01DX009 (ip), vehicle: saline with Tween-80.
[8] abbreviates: dose: 50.0 mg/kg/injection, schedule: Q01DX001 (ip), vehicle: Klucel (hydroxypropylcellulose) (HPC).
[9] abbreviates: dose: 100.0 mg/kg/injection, schedule: Q01DX001 (ip), vehicle: Klucel (hydroxypropylcellulose) (HPC).
Setting [10] is: dose: 50.0 mg/kg/injection, schedule: Q01DX009 (ip), vehicle: Klucel (hydroxypropylcellulose) (HPC).
[11] abbreviates: dose: 100.0 mg/kg/injection, schedule: Q01DX009 (ip), vehicle: Klucel (hydroxypropylcellulose) (HPC).
Where [12] appears, read: dose: 200.0 mg/kg/injection, schedule: Q01DX009 (ip), vehicle: Klucel (hydroxypropylcellulose) (HPC).
Where [13] appears, read: dose: 60.0 mg/kg/injection, schedule: Q01DX005 (ip), vehicle: saline with Tween-80.
[14] abbreviates: dose: 120.0 mg/kg/injection, schedule: Q01DX005 (ip), vehicle: saline with Tween-80.

Turning to `O=C(Nc1ccc(C2=NCCN2)cc1)c1cc(Cl)cc(C(=O)Nc2ccc(C3=NCCN3)cc2)c1`, the T/C is 95 % of control (dose: 140.0 mg/kg/injection, schedule: Q01DX010 (ip), vehicle: saline); 90 % of control (dose: 210.0 mg/kg/injection, schedule: Q01DX010 (ip), vehicle: saline); 100 % of control (dose: 315.0 mg/kg/injection, schedule: Q01DX010 (ip), vehicle: saline); 100 % of control (dose: 473.0 mg/kg/injection, schedule: Q01DX010 (ip), vehicle: saline).
Take `Nc1nc(N)c(Cc2ccccn2)cc1Cc1ccccn1`: the T/C is, setting by setting: under setting [1], 98 % of control; under setting [2], 103 % of control.
In the case of `C/C(=C1/N=C(c2ccccc2)OC1=O)c1ccccc1`, the T/C by setting is: (dose: 50.0 mg/kg/injection, schedule: Q01DX005 (ip), vehicle: saline with Tween-80) 98 % of control; (dose: 100.0 mg/kg/injection, schedule: Q01DX005 (ip), vehicle: saline with Tween-80) 96 % of control; (dose: 200.0 mg/kg/injection, schedule: Q01DX005 (ip), vehicle: saline with Tween-80) 98 % of control.
In the case of `O=S(=O)(O)C(O)c1cccnc1` (stereo not given), the T/C is 100 % of control (dose: 100.0 mg/kg/injection, schedule: Q01DX009 (ip), vehicle: saline sonified); 100 % of control (dose: 200.0 mg/kg/injection, schedule: Q01DX009 (ip), vehicle: saline sonified); 100 % of control (dose: 400.0 mg/kg/injection, schedule: Q01DX009 (ip), vehicle: saline sonified).
Turning to `CN1CC=Nc2c1nc(N)[nH]c2=O`, the T/C is, setting by setting: under setting [3], 98 % of control; under setting [4], 95 % of control.
Turning to `COc1ccc(CN(CCc2ccc(O)cc2)C(=O)C(F)(F)F)cc1O`, the T/C is, setting by setting: (dose: 6.25 mg/kg/injection, schedule: Q01DX009 (ip), vehicle: saline with Tween-80) 99 % of control; (dose: 12.5 mg/kg/injection, schedule: Q01DX009 (ip), vehicle: saline with Tween-80) 110 % of control; under setting [5], 107 % of control; under setting [3], 100 % of control.
On to `CC1(C)OC2CC(=O)OCC23C1CC(=O)C1(C)C3CCC2(C)C(c3ccoc3)OC(=O)C3OC321` (stereo not given), for which the T/C (dose: 50.0 mg/kg/injection, schedule: Q01DX010 (ip), vehicle: saline) is 100 % of control; the T/C (dose: 100.0 mg/kg/injection, schedule: Q01DX010 (ip), vehicle: saline) was 95 % of control; the T/C (dose: 200.0 mg/kg/injection, schedule: Q01DX010 (ip), vehicle: saline) is 95 % of control.
As for `CCOc1ccc2nc3cc(N=Nc4c(C)c(CN(CC)CC)cc(C)c4O)ccc3c(N)c2c1`, the T/C under setting [3] is 108 % of control, the T/C under setting [4] is 100 % of control and the T/C under setting [6] was 106 % of control.
In the case of `N=Cc1c(O)n(C2CCCCC2)c(=O)[nH]c1=O`, the T/C is 90 % of control under setting [4] and 95 % of control under setting [7].
Take `O/C(=C(\c1ccccc1)n1ncc2c1OCCC2)c1ccccc1`: the T/C by setting is: under setting [8], 94 % of control; under setting [9], 95 % of control.
Take `CCCCOP(=O)(CCCC)OCCCC.CCCCOP(=O)(CCCC)OCCCC.CCCCOP(=O)(CCCC)OCCCC.CCCCOP(=O)(CCCC)OCCCC.O.O.[Co+2].[O-][Cl+3]([O-])([O-])O`: the T/C is, setting by setting: under setting [5], 87 % of control; under setting [3], 100 % of control and 104 % of control; under setting [4], 116 % of control.
On to `c1ccc(-c2nc(-c3ccc4c(c3)OCO4)[nH]c2-c2ccccc2)cc1`, for which the T/C by setting is: under setting [10], 97 % of control; under setting [11], 114 % of control; under setting [12], 112 % of control.
As to `CC12N=C1CCCCCCCCCCCC2=O` (stereo not given), the T/C by setting is: under setting [13], 101 % of control; under setting [14], 100 % of control; (dose: 240.0 mg/kg/injection, schedule: Q01DX005 (ip), vehicle: saline with Tween-80) 108 % of control.
For the compound `CCOC(=O)/C=C(\C(=O)OCC)N(O)C(=O)CN1C(=O)c2ccccc2C1=O`, the T/C runs as follows: (dose: 50.0 mg/kg/injection, schedule: Q01DX001 (ip), vehicle: saline with Tween-80) 106 % of control; (dose: 100.0 mg/kg/injection, schedule: Q01DX001 (ip), vehicle: saline with Tween-80) 105 % of control; (dose: 200.0 mg/kg/injection, schedule: Q01DX001 (ip), vehicle: saline with Tween-80) 98 % of control; (dose: 400.0 mg/kg/injection, schedule: Q01DX001 (ip), vehicle: saline with Tween-80) 93 % of control.
Take `CC(=O)Nc1ccc(C(=O)O)cc1[N+](=O)[O-]`: the T/C by setting is: under setting [4], 99 % of control; under setting [6], 99 % of control; under setting [7], 97 % of control.
Consider `Cc1cc(C)n2nc(CC#N)c(C#N)c2n1`, for which the T/C by setting is: (dose: 12.5 mg/kg/injection, schedule: Q01DX009 (ip), vehicle: Klucel (hydroxypropylcellulose) (HPC)) 109 % of control; (dose: 25.0 mg/kg/injection, schedule: Q01DX009 (ip), vehicle: Klucel (hydroxypropylcellulose) (HPC)) 100 % of control and 107 % of control and 97 % of control; under setting [10], 100 % of control and 105 % of control and 109 % of control; under setting [11], 123 % of control and 94 % of control and 97 % of control.
Turning to `FC(F)(F)c1ccccc1NC(=S)SCc1ccc(Cl)cc1`, the T/C is, setting by setting: (dose: 50.0 mg/kg/injection, schedule: Q01DX009 (ip), vehicle: suspension in saline) 104 % of control; (dose: 100.0 mg/kg/injection, schedule: Q01DX009 (ip), vehicle: suspension in saline) 101 % of control; (dose: 200.0 mg/kg/injection, schedule: Q01DX009 (ip), vehicle: suspension in saline) 108 % of control.
For the compound `N#CNC(=Nc1ccccc1)[N](C#N)[Sn]([c]1ccccc1)([c]1ccccc1)[c]1ccccc1`, the T/C is 100 % of control (dose: 1.56 mg/kg/injection, schedule: Q01DX005 (ip), vehicle: Klucel (hydroxypropylcellulose) (HPC)); 102 % of control (dose: 3.12 mg/kg/injection, schedule: Q01DX005 (ip), vehicle: Klucel (hydroxypropylcellulose) (HPC)); 103 % of control and 97 % of control (dose: 6.25 mg/kg/injection, schedule: Q01DX005 (ip), vehicle: Klucel (hydroxypropylcellulose) (HPC)).
For `NC(N)=NS(=O)(=O)c1ccc(N=CC2C(=O)N(c3ccccc3)N(c3ccccc3)C2=O)cc1`, the T/C is 92 % of control under setting [10], 92 % of control under setting [11] and 100 % of control under setting [12].
With `Cc1cc(OC(=O)N(C)C)nc(SCC(=O)c2ccc(Cl)cc2)n1`, the T/C reads like this: under setting [10], 99 % of control; under setting [11], 103 % of control; under setting [12], 107 % of control.
For `C=Cn1c([N+](=O)[O-])cnc1/C=C/c1ccc(C(=O)NCCO)cc1`, the T/C runs as follows: (dose: 100.0 mg/kg/injection, schedule: Q04DX002 (ip), vehicle: saline with Tween-80) 96 % of control; (dose: 200.0 mg/kg/injection, schedule: Q04DX002 (ip), vehicle: saline with Tween-80) 93 % of control; (dose: 400.0 mg/kg/injection, schedule: Q04DX002 (ip), vehicle: saline with Tween-80) 93 % of control.
Take `CCOC1C(=O)C=COC1C(C)C` (stereo not given): the T/C is, setting by setting: (dose: 60.0 mg/kg/injection, schedule: Q01DX005 (ip), vehicle: saline) 108 % of control; (dose: 120.0 mg/kg/injection, schedule: Q01DX005 (ip), vehicle: saline) 104 % of control; (dose: 240.0 mg/kg/injection, schedule: Q01DX005 (ip), vehicle: saline) 110 % of control.
As for `COc1cc(C(c2cc3c(cc2OC(C)=O)OCO3)C(C(C)=O)C(C)=O)cc(OC)c1OC(C)=O` (stereo not given), the T/C under setting [13] was 90 % of control and the T/C under setting [14] was 96 % of control.
Take `CCOc1ccc(NC(=O)N(c2ccnc3ccccc23)C(C)CCCN(CC)CC)cc1` (stereo not given): the T/C reads like this: under setting [1], 98 % of control; under setting [2], 103 % of control; (dose: 200.0 mg/kg/injection, schedule: Q01DX005 (ip), vehicle: Klucel (hydroxypropylcellulose) (HPC)) 98 % of control.
Consider `CN(C(=O)OCc1ccccc1)c1ccc(C(=O)NC(CCC(=O)OCc2ccccc2)C(=O)OCc2ccccc2)cc1` (stereo not given), for which, under setting [6], the T/C was 94 % of control.
For the compound `NC(=O)N/N=C1\CCC2CCCCC2C1` (stereo not given), the T/C by setting is: (dose: 25.0 mg/kg/injection, schedule: Q01DX001 (ip), vehicle: Klucel (hydroxypropylcellulose) (HPC)) 107 % of control; under setting [8], 101 % of control; under setting [9], 100 % of control.
